This note sets out measurements from US6544990B2, “Substituted quinolinecarboxamides as antiviral agents” (Pharmacia & Upjohn Company, priority 2001, dated 2003).

One series concerns the target T1, HCMV polymerase (Human cytomegalovirus, UniProt P08546).
T1 construct: made in house; host or cells: recombinant baculovirus-infected SF-9 cells
The series can be described thus: HCMV polymerase scintillation proximity assay (SPA). To be noted: CMV polymerase. In kind it is biochemical. Here is the method: The HCMV polymerase assay is performed using a scintillation proximity assay (SPA) as described in several references, such as N. D. Cook, et al., Pharmaceutical Manufacturing International, pages 49-53 (1992); K. Takeuchi, Laboratory Practice, September issue (1992); U.S. Pat. No. 4,568,649 (1986); which are incorporated by reference herein. Reactions are performed in 96-well plates. The assay is conducted in 100 μl volume with 5.4 mM HEPES (pH 7.5), 11.7 mM KCl, 4.5 mM MgCl2, 0.36 mg/ml BSA, and 90 nM 3H-dTTP. Assays are run with and without CHAPS, (3-[(3-Cholamidopropyl)-dimethylammonio]-1-propane-sulfonate) at a final concentration of 2 mM. HCMV polymerase is diluted in enzyme dilution buffer containing 50% glycerol, 250 mM NaCl, 10 mM HEPES (pH 7.5), 100 μg/ml BSA, and 0.01% sodium azide. The HCMV polymerase, which is expressed in recombinant baculovirus-infected SF-9 cells and purified according to literature procedures, is added at 10% (or 10 μl ) of the final reaction volume, i.e., 100 μl. Compounds are diluted in 50% DMSO and 10 μl are added to each well. Control wells contain an equivalent concentration of DMSO. Unless noted otherwise, reactions are initiated via the addition of 6 nM biotinylated poly(dA)-oligo(dT) template/primer to reaction mixtures containing the enzyme, substrate, and compounds of interest. Plates are incubated in a 25 C or 37 C H20 bath and terminated via the addition of 40 μl/reaction of 0.5 M EDTA (pH 8) per well. Reactions are terminated within the time-frame during which substrate incorporation is linear and varied depending upon the enzyme and conditions used, i.e., 30 min. for HCMV polymerase. Ten μl of streptavidin-SPA beads (20 mg/mil in PBS/10% glycerol) are added following termination of the reaction. Plates are incubated 10 min. at 37 C, then equilibrated to room temperature, and counted on a Packard Topcount. Linear regressions are performed and IC50's are calculated using computer software.
A modified version of the above HCMV polymerase assay is performed as described above, but with the following changes: Compounds are diluted in 100% DMSO until final dilution into assay buffer. In the previous assay, compounds are diluted in 50% DMSO. 4.5 mM dithiotherotol (DTT) is added to the polymerase buffer.
For orientation: In a scintillation proximity assay essentially only radioactivity close to the scintillant gives light.

The next series concerns the target HSV polymerase (Human herpesvirus 1, UniProt P04293). The series can be described thus: Polymerase scintillation proximity assay (SPA), HSV. In kind it is biochemical.
The target of another series is VZV polymerase (Varicella-zoster virus, UniProt P09252). The series can be described thus: Polymerase scintillation proximity assay (SPA), VZV. Format: biochemical.

A word on the IC50: it is the midpoint of a concentration-inhibition curve. Low values mean greater potency in that assay, high ones weaker potency in that assay. Broadly, the melting point is the temperature, or range, at which the solid turns liquid.

T1 sequence (P08546 whole entry): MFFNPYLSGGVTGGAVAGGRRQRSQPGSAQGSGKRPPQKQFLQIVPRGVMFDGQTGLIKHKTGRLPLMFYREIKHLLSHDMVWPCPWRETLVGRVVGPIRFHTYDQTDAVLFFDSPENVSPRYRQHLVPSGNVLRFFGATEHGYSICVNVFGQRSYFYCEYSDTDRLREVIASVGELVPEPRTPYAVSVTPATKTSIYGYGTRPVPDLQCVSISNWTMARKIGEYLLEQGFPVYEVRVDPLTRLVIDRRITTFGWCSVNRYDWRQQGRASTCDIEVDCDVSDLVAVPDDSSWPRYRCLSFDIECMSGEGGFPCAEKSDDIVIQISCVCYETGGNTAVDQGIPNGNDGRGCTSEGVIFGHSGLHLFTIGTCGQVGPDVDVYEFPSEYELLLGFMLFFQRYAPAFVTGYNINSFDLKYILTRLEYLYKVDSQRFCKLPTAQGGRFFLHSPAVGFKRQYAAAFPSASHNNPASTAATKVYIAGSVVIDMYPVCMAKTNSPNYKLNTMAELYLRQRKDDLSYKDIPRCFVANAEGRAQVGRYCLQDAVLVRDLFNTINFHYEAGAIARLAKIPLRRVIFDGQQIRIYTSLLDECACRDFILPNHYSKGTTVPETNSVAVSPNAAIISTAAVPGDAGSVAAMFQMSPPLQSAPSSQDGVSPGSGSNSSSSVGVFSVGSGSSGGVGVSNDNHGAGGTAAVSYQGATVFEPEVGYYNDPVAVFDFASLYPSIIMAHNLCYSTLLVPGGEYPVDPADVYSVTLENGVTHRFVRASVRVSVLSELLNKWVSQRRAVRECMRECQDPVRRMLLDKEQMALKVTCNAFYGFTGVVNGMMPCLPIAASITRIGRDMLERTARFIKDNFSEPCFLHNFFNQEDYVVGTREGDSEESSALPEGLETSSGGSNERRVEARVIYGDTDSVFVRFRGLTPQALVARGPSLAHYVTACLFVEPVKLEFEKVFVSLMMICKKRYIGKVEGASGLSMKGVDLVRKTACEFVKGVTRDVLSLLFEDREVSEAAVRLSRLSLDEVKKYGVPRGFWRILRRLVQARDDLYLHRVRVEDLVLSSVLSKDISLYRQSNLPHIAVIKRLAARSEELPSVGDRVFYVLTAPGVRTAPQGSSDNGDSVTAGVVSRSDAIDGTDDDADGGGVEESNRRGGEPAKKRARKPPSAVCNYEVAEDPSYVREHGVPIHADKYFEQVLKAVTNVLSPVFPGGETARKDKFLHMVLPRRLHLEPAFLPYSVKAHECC
HSV polymerase, sequence (P04293 whole entry): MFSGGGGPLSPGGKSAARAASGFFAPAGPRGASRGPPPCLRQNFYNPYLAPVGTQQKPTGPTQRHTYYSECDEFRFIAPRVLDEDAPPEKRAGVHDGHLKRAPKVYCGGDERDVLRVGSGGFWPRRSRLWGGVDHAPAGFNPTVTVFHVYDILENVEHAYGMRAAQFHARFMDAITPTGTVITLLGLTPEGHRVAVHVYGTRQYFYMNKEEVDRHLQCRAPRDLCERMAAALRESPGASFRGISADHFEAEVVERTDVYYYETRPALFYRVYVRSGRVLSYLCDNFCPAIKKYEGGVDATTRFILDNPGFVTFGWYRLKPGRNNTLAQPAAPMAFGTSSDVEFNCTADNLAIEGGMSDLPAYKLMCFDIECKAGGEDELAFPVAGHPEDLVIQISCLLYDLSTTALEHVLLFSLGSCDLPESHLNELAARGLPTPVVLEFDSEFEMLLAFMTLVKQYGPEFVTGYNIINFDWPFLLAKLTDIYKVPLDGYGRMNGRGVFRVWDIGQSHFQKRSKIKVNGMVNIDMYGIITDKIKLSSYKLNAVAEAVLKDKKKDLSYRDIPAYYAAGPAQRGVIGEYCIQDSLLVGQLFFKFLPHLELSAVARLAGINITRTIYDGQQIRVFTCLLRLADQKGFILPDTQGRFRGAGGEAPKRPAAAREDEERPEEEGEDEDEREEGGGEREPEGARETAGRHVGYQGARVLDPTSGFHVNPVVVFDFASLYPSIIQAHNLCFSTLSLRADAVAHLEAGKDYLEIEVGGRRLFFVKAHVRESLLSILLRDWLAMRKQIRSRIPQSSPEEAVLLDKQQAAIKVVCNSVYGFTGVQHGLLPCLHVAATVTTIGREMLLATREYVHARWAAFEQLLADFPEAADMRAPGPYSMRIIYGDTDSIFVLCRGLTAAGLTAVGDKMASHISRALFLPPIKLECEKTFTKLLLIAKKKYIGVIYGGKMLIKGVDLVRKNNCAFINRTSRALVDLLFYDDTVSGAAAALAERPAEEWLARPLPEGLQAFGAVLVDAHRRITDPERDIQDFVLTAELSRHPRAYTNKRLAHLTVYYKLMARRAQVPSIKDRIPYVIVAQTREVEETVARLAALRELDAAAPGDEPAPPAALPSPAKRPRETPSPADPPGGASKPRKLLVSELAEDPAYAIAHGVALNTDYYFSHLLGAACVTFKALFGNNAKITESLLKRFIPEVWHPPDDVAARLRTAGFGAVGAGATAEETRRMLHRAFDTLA
VZV polymerase, sequence (P09252 whole entry): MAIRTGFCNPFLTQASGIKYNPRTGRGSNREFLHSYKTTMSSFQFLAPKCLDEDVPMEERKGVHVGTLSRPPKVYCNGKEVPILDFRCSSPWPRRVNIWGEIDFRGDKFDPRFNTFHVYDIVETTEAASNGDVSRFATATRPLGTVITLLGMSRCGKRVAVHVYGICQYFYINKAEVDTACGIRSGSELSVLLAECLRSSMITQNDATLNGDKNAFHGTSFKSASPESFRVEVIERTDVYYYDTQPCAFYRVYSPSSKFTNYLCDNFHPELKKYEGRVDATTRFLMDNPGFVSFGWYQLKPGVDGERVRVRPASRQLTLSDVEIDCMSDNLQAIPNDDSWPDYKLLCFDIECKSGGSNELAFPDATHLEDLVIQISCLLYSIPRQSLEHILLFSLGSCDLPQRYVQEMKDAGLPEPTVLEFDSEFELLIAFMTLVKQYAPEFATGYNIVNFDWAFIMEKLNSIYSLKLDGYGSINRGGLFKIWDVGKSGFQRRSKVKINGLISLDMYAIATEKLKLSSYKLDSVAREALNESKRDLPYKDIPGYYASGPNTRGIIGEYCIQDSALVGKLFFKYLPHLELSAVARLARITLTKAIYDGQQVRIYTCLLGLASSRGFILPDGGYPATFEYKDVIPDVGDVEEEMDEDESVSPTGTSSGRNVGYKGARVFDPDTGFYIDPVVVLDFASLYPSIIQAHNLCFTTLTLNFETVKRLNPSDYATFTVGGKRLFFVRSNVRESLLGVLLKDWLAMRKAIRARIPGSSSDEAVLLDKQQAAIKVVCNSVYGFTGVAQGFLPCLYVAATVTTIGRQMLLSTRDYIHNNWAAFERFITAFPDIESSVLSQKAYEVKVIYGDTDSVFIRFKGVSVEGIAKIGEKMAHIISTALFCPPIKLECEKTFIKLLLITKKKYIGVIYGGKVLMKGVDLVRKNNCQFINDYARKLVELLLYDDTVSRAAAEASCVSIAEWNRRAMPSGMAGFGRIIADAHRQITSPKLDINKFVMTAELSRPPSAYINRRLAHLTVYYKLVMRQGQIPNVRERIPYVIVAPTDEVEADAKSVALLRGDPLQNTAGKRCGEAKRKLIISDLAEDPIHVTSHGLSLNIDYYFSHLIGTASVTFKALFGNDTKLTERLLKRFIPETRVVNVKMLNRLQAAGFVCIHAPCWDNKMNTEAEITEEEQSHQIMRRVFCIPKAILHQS

`Cn1cc(C(=O)NCc2ccc(Cl)cc2)c(=O)c2cc(CC3CCOCC3)cc(C#CCO)c21` [Example 1, N-(4-chlorobenzyl)-8-(3-hydroxy-1-propynyl)-1-methyl-4-oxo-6-(tetrahydro-2H-pyran-4-ylmethyl)-1,4-dihydro-3-quinolinecarboxamide] yielded a melting point of 166 to 168 °C. At HCMV polymerase, this compound yielded an IC50 of 0.32 µM. This compound also came in with an IC50 against HSV polymerase of 0.25 µM. For the same compound, on VZV polymerase, the IC50 is 0.18 µM. Regarding `Cn1cc(C(=O)NCc2ccc(Cl)cc2)c(=O)c2cc(CC3CCOCC3)cc(C#CCCO)c21` [Example 2, N-(4-chlorobenzyl)-8-(4-hydroxy-1-butynyl)-1-methyl-4-oxo-6-(tetrahydro-2H-pyran-4-ylmethyl)-1,4-dihydro-3-quinolinecarboxamide], the melting point lay in the range of 186 to 188 °C. This compound also registered an IC50 on HCMV polymerase of 0.32 µM. In the same order, the values of `CN(C)CC#Cc1cc(CC2CCOCC2)cc2c(=O)c(C(=O)NCc3ccc(Cl)cc3)cn(C)c12` [Example 3, N-(4-chlorobenzyl)-8-[3-(dimethylamino)-1-propynyl]-1-methyl-4-oxo-6-(tetrahydro-2H-pyran-4-ylmethyl)-1,4-dihydro-3-quinolinecarboxamide] are 157 to 159 °C and 0.87 µM. In the same order, the values of `CN(C)CC#Cc1cc(CN2CCOCC2)cc2c(=O)c(C(=O)NCc3ccc(Cl)cc3)cn(C)c12` [Example 5, N-(4-chlorobenzyl)-8-[3-(dimethylamino)-1-propynyl]-1-methyl-6-(4-morpholinylmethyl)-4-oxo-1,4-dihydro-3-quinolinecarboxamide] are 154 to 157 °C and 1.6 µM. In the same order, the values of `Cn1cc(C(=O)NCc2ccc(Cl)cc2)c(=O)c2cc(CN3CCOCC3)cc(C#CCC[C@@H]3COC(=O)N3)c21` [Example 9, N-(4-chlorobenzyl)-1-methyl-6-(4-morpholinylmethyl)-4-oxo-8-{4-[(4R)-2-oxo-1,3-oxazolidin-4-yl]-1-butynyl}-1,4-dihydro-3-quinolinecarboxamide] are 171 to 173 °C and 0.55 µM. As to `Cn1cc(C(=O)NCc2ccc(Cl)cc2)c(=O)c2cc(CN3CCOCC3)cc(C#CCF)c21` [Example 12, N-(4-chlorobenzyl)-8-(3-fluoroprop-1-ynyl)-1-methyl-6-(morpholin-4-ylmethyl)-4-oxo-1,4-dihydroquinoline-3-carboxamide], the melting point was in the range of 189 to 191 °C. The IC50 against HCMV polymerase is 0.77 µM. Compound `Cc1cncn1CC#Cc1cc(CN2CCOCC2)cc2c(=O)c(C(=O)NCc3ccc(Cl)cc3)cn(C)c12` [Example 14, N-(4-chlorobenzyl)-1-methyl-8-[3-(5-methyl-1H-imidazol-1-yl)prop-1-ynyl]-6-(morpholin-4-ylmethyl)-4-oxo-1,4-dihydroquinoline-3-carboxamide] returned an IC50 at HCMV polymerase of 0.52 µM. Take `CC(O)CC#Cc1cc(CN2CCOCC2)cc2c(=O)c(C(=O)NCc3ccc(Cl)cc3)cn(C)c12` (stereo not drawn) [Example 18, N-(4-chlorobenzyl)-8-(4-hydroxypent-1-ynyl)-1-methyl-6-(morpholin-4-ylmethyl)-4-oxo-1,4-dihydroquinoline-3-carboxamide]: the melting point was 178 to 180 °C. The IC50 against HCMV polymerase worked out at 0.61 µM.

The compound `Cn1cc(C(=O)NCc2ccc(Cl)cc2)c(=O)c2cc(CN3CCOCC3)cc(C#CCN3CCC(O)CC3)c21` [Example 19, N-(4-chlorobenzyl)-8-[3-(4-hydroxypiperidin-1-yl)prop-1-ynyl]-1-methyl-6-(morpholin-4-ylmethyl)-4-oxo-1,4-dihydroquinoline-3-carboxamide] displayed a melting point of 180 to 183 °C. Besides, inhibition on HCMV polymerase was half-maximal at 1.01 µM (IC50). In the same order, the values of `Cn1cc(C(=O)NCc2ccc(Cl)cc2)c(=O)c2cc(CN3CCOCC3)cc(C#CCN3CCC(O)C3)c21` (stereo not drawn) [Example 20, N-(4-chlorobenzyl)-8-[3-(3-hydroxypyrrolidin-1-yl)prop-1-ynyl]-1-methyl-6-(morpholin-4-ylmethyl)-4-oxo-1,4-dihydroquinoline-3-carboxamide] are 144 to 146 °C and 1.02 µM. Compound `CN(CC#Cc1cc(CN2CCOCC2)cc2c(=O)c(C(=O)NCc3ccc(Cl)cc3)cn(C)c12)CC(O)CO` (stereo not drawn) [Example 21, N-(4-chlorobenzyl)-8-{3-[(2,3-dihydroxypropyl)(methyl)amino]prop-1-ynyl}-1-methyl-6-(morpholin-4-ylmethyl)-4-oxo-1,4-dihydroquinoline-3-carboxamide] registered a melting point of 140 to 142 °C. Also, the 50% inhibitory concentration (IC50) against HCMV polymerase turned out to be 0.8 µM. In the same order, the values of `CN(CC#Cc1cc(CN2CCOCC2)cc2c(=O)c(C(=O)NCc3ccc(Cl)cc3)cn(C)c12)CCO` [Example 22, N-(4-chlorobenzyl)-8-{3-[(2-hydroxyethyl)(methyl)amino]prop-1-ynyl}-1-methyl-6-(morpholin-4-ylmethyl)-4-oxo-1,4-dihydroquinoline-3-carboxamide] are 148 to 149 °C and 0.82 µM.

The compound `Cn1cc(C(=O)NCc2ccc(Cl)cc2)c(=O)c2cc(CN3CCOCC3)cc(C#CCC(CO)CO)c21` [Example 24, N-(4-chlorobenzyl)-8-[5-hydroxy-4-(hydroxymethyl)pent-1-ynyl]-1-methyl-6-(morpholin-4-ylmethyl)-4-oxo-1,4-dihydroquinoline-3-carboxamide] yielded a melting point of 190 to 193 °C. This compound also yielded an IC50 at HCMV polymerase of 0.56 µM. In the case of `Cn1cc(C(=O)NCc2ccc(Cl)cc2)c(=O)c2cc(CN3CCOCC3)cc(C#CCN3CCCC(CO)C3)c21` (stereo not drawn) [Example 25, N-(4-chlorobenzyl)-8-{3-[3-(hydroxymethyl)piperidin-1-yl]prop-1-ynyl}-1-methyl-6-(morpholin-4-ylmethyl)-4-oxo-1,4-dihydroquinoline-3-carboxamide], on HCMV polymerase, half-maximal inhibition (IC50) was put at 0.74 µM.

As for `Cn1cc(C(=O)NCc2ccc(Cl)cc2)c(=O)c2cc(CN3CCOCC3)cc(C#CCN3CCN(CCO)CC3)c21` [Example 26, N-(4-chlorobenzyl)-8-{3-[4-(2-hydroxyethyl)piperazin-1-yl]prop-1-ynyl}-1-methyl-6-(morpholin-4-ylmethyl)-4-oxo-1,4-dihydroquinoline-3-carboxamide], the IC50 on HCMV polymerase came to 1.29 µM. Still for that read-out and setting: under `Cn1cc(C(=O)NCc2ccc(Cl)cc2)c(=O)c2cc(CN3CCOCC3)cc(C#CCN3CCC[C@H]3CO)c21` [Example 27, N-(4-chlorobenzyl)-8-{3-[(2S)-2-(hydroxymethyl)pyrrolidin-1-yl]prop-1-ynyl}-1-methyl-6-(morpholin-4-ylmethyl)-4-oxo-1,4-dihydroquinoline-3-carboxamide] stands 0.94 µM; under `Cn1cc(C(=O)NCc2ccc(Cl)cc2)c(=O)c2cc(CN3CCOCC3)cc(C#CCN3CCCC(O)C3)c21` (stereo not drawn) [Example 28, N-(4-chlorobenzyl)-8-[3-(3-hydroxypiperidin-1-yl)prop-1-ynyl]-1-methyl-6-(morpholin-4-ylmethyl)-4-oxo-1,4-dihydroquinoline-3-carboxamide], 0.82 µM.

Turning to `Cn1cc(C(=O)NCc2ccc(Cl)cc2)c(=O)c2cc(CN3CCOCC3)cc(C#CCN3CCC[C@@H]3CO)c21` [Example 29, N-(4-chlorobenzyl)-8-{3-[(2R)-2-(hydroxymethyl)pyrrolidin-1-yl]prop-1-ynyl}-1-methyl-6-(morpholin-4-ylmethyl)-4-oxo-1,4-dihydroquinoline-3-carboxamide], the IC50 against HCMV polymerase came to 0.73 µM. This IC50 and that of the compound before are within 1.5-fold of each other. Same read-out and setting: under `Cn1cc(C(=O)NCc2ccc(Cl)cc2)c(=O)c2cc(CN3CCOCC3)cc(C#CCN3CCCCC3CCO)c21` (stereo not drawn) [Example 30, N-(4-chlorobenzyl)-8-{3-[2-(2-hydroxyethyl)piperidin-1-yl]prop-1-ynyl}-1-methyl-6-(morpholin-4-ylmethyl)-4-oxo-1,4-dihydroquinoline-3-carboxamide] stands 0.71 µM. For the compound `CCCCN(CC#Cc1cc(CN2CCOCC2)cc2c(=O)c(C(=O)NCc3ccc(Cl)cc3)cn(C)c12)CCO` [Example 31, 8-{3-[butyl(2-hydroxyethyl)amino]prop-1-ynyl}-N-(4-chlorobenzyl)-1-methyl-6-(morpholin-4-ylmethyl)-4-oxo-1,4-dihydroquinoline-3-carboxamide], the IC50 on HCMV polymerase is 0.49 µM; against HSV polymerase, 0.55 µM; on VZV polymerase, 0.33 µM.
